Assay results as given in US7267815B2, “Methods and reagents for the enhancement of virus transduction in the bladder epithelium” (priority 2002, dated 2007).

Legend:
bladder epithelium = assay: Effect of chemical agent pretreatment on adenovirus-mediated gene transfer and expression (Ad-βgal, X-gal staining); assay type: in vivo, mouse (BALB/c)
Protocol: 152 female BALB/c mice were used this study.
The route of administration of the chemical agent and virus was intravesical.
3. Based on the reagent being tested, bladder pretreatment was performed as follows:
Poloxomer 407 procedure: Washed 2 times with 100 μl each. Retained the 3rd wash for 5 min and gave one additional wash. Performed 3 times PBS wash prior to virus instillation.
Poloxomer 188 procedure: Washed 2 times with 100 μl each. Retained the 3rd wash for 5 minutes and gave one additional wash. Performed 3 times PBS wash prior to virus instillation.
Lipofectamine 2000 procedure: Added 5 μl of stock Lipofectamine (1 mg/ml) to 195 μl of PBS-10% glycerol. Mixed with an equal volume of Ad-βgal virus and incubated for 15 minutes. Administered 100 μl of the mixture intravesically and retained in the bladder for 30 minutes.
Benzyl Alcohol procedure: Washed 2 times with 100 μl each. Retained the 3rd wash for 15 minutes and then gave one additional wash. Performed 3 times PBS wash prior to virus instillation.
Performed 3 times PBS wash prior to virus instillation.
Polidocanol procedure: Washed 2 times with 100 μl each. Retained the 3rd wash for 5 min and then gave one additional wash. Performed 3 times PBS wash prior to virus instillation.
DC-Cho procedure: Washed 2 times with 100 μl each. Retained the 3rd wash for 5 min and then gave one additional wash. Performed 3 times PBS wash prior to virus instillation.
0.4% HPMC 2910 procedure: No pretreatment. An equal volume of the virus was mixed with 0.8% solution of HPMC2910 and the mixture was instilled into the bladder for 30 minutes.
100 mg/ml Poly-Lysine procedure: No pretreatment. An equal volume of the virus was mixed with 100 mg/ml solution of Poly-Lysine and the mixture was instilled into the bladder for 30 minutes.
0.4% polyvinyl alcohol (PVA) procedure: No pretreatment. An equal volume of the virus was mixed with 0.8% solution of PVA and the mixture was instilled into the bladder for 30 minutes.
n-dodecyl-β-D glucopyranoside procedure: Washed 2 times with 100 μl each. Retained the 3rd wash for 5 min and then gave one additional wash. Performed 3 times PBS wash prior to virus instillation.
0.4% PVP procedure: No pretreatment. An equal volume of the virus was mixed with 0.8% solution of PVP and the mixture was instilled into the bladder for 30 min.
0.1% cholesterol-cyclodextrin reagent procedure: No pretreatment. An equal volume of the virus was mixed with 0.2% solution of Cholesterol-Cyclodextrin and the mixture was instilled into the bladder for 30 minutes.
n-dodecyl-β-D-maltoside procedure: Washed 2 times with 100 μl each. Retained the 3rd wash for 5 min and then gave one additional wash. Performed 3 times PBS wash prior to virus instillation.
Sodium salt of dodecyl benzenesulfonic acid procedure: Washed 2 times with 100 μl each. Retained the 3rd wash for 5 min and then gave one additional wash. Performed 3 times PBS wash prior to virus instillation.
0.1% sodium dodecyl sulphate procedure: Wash 2 times with 100 μl each. Retained the 3rd wash for 5 min and then gave one additional wash. Performed 3 times PBS wash prior to virus instillation.
0.1% Tween 20 procedure: Washed 2 times with 100 μl each. Retained the 3rd wash for 5 min and then gave one additional wash. Performed 3 times PBS wash prior to virus instillation.
0.1% Triton® X-100 procedure: Washed 2 times with 100 μl each. Retained the 3rd wash for 5 min and then gave one additional wash. Perform 3 times PBS wash prior to virus instillation.
0.1% Forlan C-24 procedure: Washed 2 times with 100 μl each. Retained the 3rd wash for 5 min and then gave one additional wash. Performed 3 times PBS wash prior to virus instillation.
0.1% decyl-b-D-maltoside procedure: Washed 2 times with 100 μl each. Retained the 3rd wash for 5 min and then gave one additional wash. Performed 3 times PBS wash prior to virus instillation.
0.1% 6-cyclohexylhexyl-b-D-maltoside procedure: Washed 2 times with 100 μl each. […]

mice bladder urothelium = assay: Effects of different diluents on adenovirus infectivity after DDM pretreatment; assay type: in vivo, Balb/c Mouse; conditions: DDM pretreatment (QQ5 minQ); virus diluted 100 fold with different diluents, 45 min, 1×10^9 vp/dose
Protocol: • Species: Female Balb/c Mouse (Taconic Laboratory)—2/group • Study Design: To test the effects of different diluents on Adenovirus infectivity of mice urothelium followed DDM pretreatment (QQ5 minQ). The virus would be diluted 100 fold with the diluents prior to instillation into mice bladder for 45 min. • Dose/Route:
Dodecyl-β-D-Maltoside (Lot #100K5308).
All the animals had >90% in Ad-βgal gene expression in mice bladder. Adenovirus Dose Titration with Different Chemical Agents Pretreatment on SD Rat Bladder Epithelium • Species: Female Sprague Dawley Rat (Taconic Laboratory)—2/group • Study Design: To test the virus infectivity of rat bladder epithelium with different doses of Adenovirus following the pretreatment with SDS or DDM. This study also explored relationship between bladder volume and residual of SDS or DDM for adenovirus infectivity. • Dose/Route: […]

[1] = system: SW780+ Luc orthotopic bladder tumor; assay: DDM as chemical enhancer prior to Ad.LacZ infection of orthotopic bladder tumor model; assay type: in vivo, NCR nu/nu Mouse; conditions: DDM pretreatment (QQ5 minQ), 15 min Ad.Lac Z, 96 hrs; except dead necrotic tumor cells
From the text: In each case, >90% Ad-βgal expression was achieved. Therefore, DDM from either manufacturer is a good candidate for a chemical enhancer for adenovirus infection in mice bladder. Efficacy of Dodecyl-β-D-Maltoside as Chemical Enhancer Prior to Adenovirus Infection of SW780+ Luc Orthotopic Bladder Tumor Model in Mice • Species: Female NCR nu/nu Mouse (Taconic Laboratory)-2/group • Study Design: To show DDM pretreatments enhance Ad.Lac Z infectivity in mice bladder urothelium. To further confirm the enhancer effect on orthotopic tumors, two mice bearing orthotopic SW780 bladder tumors were pretreated with or without DDM (QQ5 minQ) followed by 15 min Ad.Lac Z instillation. The Ad.Lac Z gene expression levels were checked in these tumor cells 4 days post Ad.Lac Z infection. • Dose/Route:
Dodecyl-β-D-Maltoside (Lot#018H7250).
Results: There was a significant difference in Ad-βgal gene expression levels between mice bladders pretreated with DDM and control animals. Without DDM pretreatment, there was very low Ad-βgal gene expression levels in bladder epithelium cells and tumor cells. With DDM pretreatment, nearly 100% of the epithelium cells were transduced with Ad-βgal gene in bladder tumors except those dead necrotic tumor cells. It was concluded that DDM pretreatment enhances Adenovirus infection in orthotopic tumor cells. […]

bladder = assay: Histopathology of bladders after chemical agent pretreatment (pathologists report); assay type: in vivo, mouse (BALB/c)
From the text: Bladders fixed in whole organ fixative were sectioned and stained with hematoxylin-eosin for histologic examination.

[2] = 0.02% pre-treatment for 5 minutes
[3] = 0.05% pre-treatment for 5 minutes
[4] = 0.2% pre-treatment for 5 minutes

In the case of `CCCCCCCCCCCCO[C@@H]1O[C@H](CO)[C@@H](O[C@H]2O[C@H](CO)[C@@H](O)[C@H](O)[C@H]2O)[C@H](O)[C@H]1O` [n-dodecyl β-D-maltoside, n-dodecyl-β-D-maltoside], the “response class (level of transduction)” value (bladder epithelium) is reported as “strongest response”, the “transduction of the urothelium” value (bladder epithelium; [2]) is reported as 50-80% and the “transduction of the urothelium” value (bladder epithelium; [3]) is reported as over 90%. For the same molecule, the “transduction of the urothelium” value (bladder epithelium; [4]) was over 90%, the “effect on transduction (in words)” value (bladder epithelium; bladder pretreatment followed by Ad-LacZ) was “increased transduction significantly” and the “Ad-βgal gene expression in mice bladder” value (mice bladder urothelium) was over 90%. For the same molecule, the “epithelium cells transduced with Ad-βgal gene in bladder tumors” value [1] was about 100%, the pathologists report (bladder; [2]) was “no significant lesions” and the pathologists report (bladder; [3]) was “no significant lesions”. For the same molecule, the pathologists report (bladder; [4]) was “erosions, focal ulcer, moderate submucosal edema with mucosal compromise”.
